We go through one compound from patent US11521704B2, “Method for probing at least one binding site of a protein” (priority 2017, dated 2022).

Structures are written as SMILES. Where two headings read alike, the source gives them in different places.

For test [1], the system named is SF-2 wild-type HIV-1 protease. In words: Cell-based replicon assay. The following applies: Human immunodeficiency virus 1, cell-based replicon assays. An excerpt: (§1) A diverse panel of 15 HIV-1 protease variants was chosen with a broad range of sequence substitutions containing single site mutants and more heavily mutated multi-drug resistant proteases (MDR-PRs). Both the SF-2 and NL4-3 wild-type (WT) proteases were used as controls for the variants in the panel. These two WT proteins shared 95% identity, varying at positions 7, 14, 41, 63 and 64 (FIG. 2). […] Table 1 is a listing of EC50 values for clinically-derived HIV-1 protease variants determined by cell-based assays at the Swanstrom laboratory at UNC-Chapel Hill, and fold changes relative to wild type NL4-3. The EC50 value for variant ATA21 could not be determined.
A general note: Replicon systems follow genome replication, usually without infectious particles.

The test system of test [2] is clinically-derived HIV-1 protease variant VSL23. Description: Cell-based assay (Swanstrom laboratory). Particulars: Human immunodeficiency virus 1.
Test [3] has as its system clinically-derived HIV-1 protease variant SLK19. Description: Cell-based assay (Swanstrom laboratory). The following applies: Human immunodeficiency virus 1.
Test [4] has as its system clinically-derived HIV-1 protease variant KY26. In words: Cell-based assay (Swanstrom laboratory). The following applies: Human immunodeficiency virus 1.
Test [5] has as its system NL4-3 wild-type HIV-1 protease. Description: Cell-based assay (Swanstrom laboratory). The following applies: Human immunodeficiency virus 1, NL43.
Description: as §1

The subject of test [6] is clinically-derived HIV-1 protease variant VEG23. Description: Cell-based assay (Swanstrom laboratory). The following applies: Human immunodeficiency virus 1.

By EC50 is commonly meant the concentration giving half of the maximal effect. As to `CC(C)CN(C[C@@H](O)[C@H](Cc1ccccc1)NC(=O)O[C@H]1CO[C@H]2OCC[C@H]21)S(=O)(=O)c1ccc(N)cc1` [DRV, Darunavir], the EC50 in test [1] came to 0.004 µM; in test [2] it was 0.32 µM; in test [3], 0.0325 µM; in test [4], 1.16 µM; in test [5] (NL4-3, cell-based replicon assays, read-out: EC50), 0.004 µM; in test [5] (NL4-3 wild type, read-out: EC50 In), 0.00398 µM. In addition, in test [6], the concentration for a half-maximal effect (EC50) came to 7.8 µM.
